In assay [1] the test system is human RAR-γ. The experiment in a line: RAR-γ transactivation assay (SeAP reporter, COS cells). It is filed as cell-based. The conditions noted are these: for Transactivation % max (γ): relative to all-trans-retinoic acid at same concentration (1,000 nM or 10,000 nM). As for the experimental part:
(§1) Retinoid Receptor Transactivation Assays
(§2) Transactivation assays were performed essentially as described in Apfel et al., supra. For the RAR transcription activation test system, the secreted alkaline phosphatase gene (SeAP) is used as reporter. To have a screening system specific for the transfected receptor, chimeric receptors are used. These contain an estrogen receptor DNA binding domain and therefore recognize the estrogen response element (ERE) which no endogenous RAR's in mammalian cells will recognize.
(§3) The transactivation assay system has been adapted to 96-well plates and most steps are done by a robot. Briefly, on day 1 confluent COS cells are subcultured at an equivalent density onto 96-well plates in DMEM+10% charcoal stripped serum. On day 2 DNA is prepared for transfection by mixing the following: 10 μg vit-TK-SeAP reporter plasmid, 2 μg RAR expression plasmid, 2 μg transfection control plasmid and 30 μl Transfectam (lipopolyamine transfection reagent). Cells are washed twice with serum-free medium and DNA/transfectam mix added. After 1 hour medium is removed and replaced with growth medium containing test retinoids. On day 4 or 5 the culture supernatant is removed, heated to 65° for 5 min to inactivate nonspecific phosphatases, and diluted 1:10 with water. 20 μl samples are added to 100 μl of phosphatase substrate in buffer. After 1 hour at 37° the luminescence is measured in a 96-well luminometer.
(§4) 100 μl of β-galactosidase substrate is added to the adherent cells. Plates are incubated for 1 hour at 37° and the supernatants transferred to separate plates for quantitation of β-galactosidase activity by luminescence measurement. Transactivation results are expressed as the ratio of SeAP/β-galactosidase activity for each well to correct for well-to-well variation in transfection efficiency.
(§5) Data are means of values obtained from two or more individual experiments, rounded off to two significant figures. […] The maximum transactivation activity is determined from the plot where increasing dosage provides little or no additional activity, i.e., where the plot begins to level off. For active retinoids the highest concentration tested is 1000 nM.

Assay [2] relates to photodamaged skin. Put plainly: Measurement of photodamage repair in the hairless mouse model. The conditions noted are these: for Photodamage repair activity (scale 0 to 4): UVB-irradiated, topical in acetone three times per week, three doses. It is filed as in vivo, Hairless mice (female, HRS/J strain). From the text:
The ability of a composition of the invention to induce repair of photodamaged skin may be determined by any conventional means. One conventional method of determining the ability of a topical composition to repair photodamaged skin is the hairless mouse model described by Kligman et al., supra. […] In this model, repair is defined by the appearance of a zone of normalized dermis extending from the epidermis down to the layer of compressed elastin. The extent of repair is reflected by the width of this zone. […] The average width of the repair zone is then calculated by dividing the area by the length of the histological section that was measured.
The width of the repair zone is […] an activity value of 4.
Measurement of Photodamage Repair
Hairless mice (female, HRS/J strain, Jackson Labs, 5-7 weeks old at the start of the experiments) were housed in yellow light and irradiated three times per week with a bank of 8 Westinghouse Sunlamps (FS120) placed about 20 cm above the animals. Daily doses were 0.03 J/cm^2 for two weeks, 0.06 J/cm2 for two weeks and 0.08 J/cm2 thereafter. The radiation dose is controlled by an International Light Model IL844A Phototherapy Exposure Control and a model SEE240 detector.
To effect repair of the dermal damage, the UVB irradiation was discontinued and the animals were divided into groups of approximately eight and treated three times per week with various concentrations of the retinoids dissolved in acetone. Stock solutions are made up freshly every week in subdued light at concentrations such that the dose is delivered in 100 μl volume and applied topically with a plastic pipette to an area of about 10 cm^2 on the back of the animal. All dosing was done under yellow light. A control group treated with acetone alone was included.
Two-cm strips of dorsal skin were taken longitudinally down the center of the irradiated (and treated) area. Elastin fibers were stained with Luna's aldehyde fuchsin and collagen by Van Gieson. In this model, repair is defined by the appearance of a normalized dermis extending from the epidermis down to the layer of compressed elastin. The extent of repair is reflected by the width of this zone. […] Twenty-four fields each of which, at 100X magnification, represents a section of tissue 0.57 mm long, are examined and the area calculated. The results are reported as the average area per field in mm^2. Thus the average width of the repair zone can be obtained by dividing this average area by 0.57 mm. […] All microscopic fields are included in the calculations of average area (or width). Data are analyzed by Student's t-test.
Compounds are tested at three doses and an approximate ED50 calculated.

The test system of assay [3] is human RAR-α. The experiment in a line: RAR-α transactivation assay (SeAP reporter, COS cells). It is filed as cell-based. The conditions noted are these: for Transactivation % max (α): relative to all-trans-retinoic acid at same concentration (1,000 nM or 10,000 nM). As for the experimental part:
as §1, §2, §3, §4, §5

The test system of assay [4] is RAR-β. Put plainly: RAR-β transactivation assay (SeAP reporter, COS cells). Type of assay: cell-based, human. The conditions noted are these: for Transactivation % max (β): relative to all-trans-retinoic acid at same concentration (1,000 nM or 10,000 nM). As for the experimental part: as §1, §2, §3, §4, §5
For assay [5], the target named is human RAR-γ. The experiment in a line: Binding assay for human RAR-γ (displacement of 3H-retinoic acid). The settings on record: 3H-retinoic acid displacement, mean of two or more experiments. The method, then:
(§6) Binding Assay for Human RAR-α, RAR-β and RAR-γ
(§7) Binding assays were performed essentially as described in Apfel et al., supra. […] Extracts containing the receptors were used in a competitive binding assay which depends upon the ability of increasing concentrations of a retinoid to displace ^3 H-retinoic acid. In a typical assay, 0.2 to 0.4 picomoles of receptors were incubated in 0.2 ml of 50 mM Tris HCl, pH 7.4, 50 mM NaCl, 2 mM EDTA (binding buffer) containing 0.5% gelatin, 1% DMSO, 2-5 nM ^3 H-retinoic acid and various concentrations of unlabelled retinoids. After 3-5 hours at 22° C., 0.15 ml of chilled charcoal/dextran suspension (5% Norit A/0.5% dextran T-40 in binding buffer) were added for 15 min at 4° C. The tubes were centrifuged at 12,000 x g for 15 minutes and the supernates counted. Binding parameters were calculated from competition curves using the Ligand program.
(§8) Data are means of values obtained from two or more individual experiments, rounded off to two significant figures. […] When binding inhibition at 10,000 nM is less than 50%, >10,000 is indicated.
(In general: Loss of bound radioactivity is the signal in a displacement assay; it reports binding, not function.)

In assay [6] the target is T1, human RAR-β (Homo sapiens, UniProt P10826).
T1 sequence (P10826 201-455 limits assumed): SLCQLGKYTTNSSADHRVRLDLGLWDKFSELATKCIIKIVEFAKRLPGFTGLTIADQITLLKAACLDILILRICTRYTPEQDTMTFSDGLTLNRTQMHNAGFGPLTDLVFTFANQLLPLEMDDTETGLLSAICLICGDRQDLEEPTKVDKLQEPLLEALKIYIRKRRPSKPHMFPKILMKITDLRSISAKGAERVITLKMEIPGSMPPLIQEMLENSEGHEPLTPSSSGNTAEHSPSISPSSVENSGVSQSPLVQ
Put plainly: Binding assay for human RAR-β (displacement of 3H-retinoic acid). The settings on record: 3H-retinoic acid displacement, mean of two or more experiments. As for the experimental part: as §6, §7, §8

Assay [7] concerns the target T2, human RAR-α (Homo sapiens, UniProt P10276).
T2 sequence (P10276 201-462 limits assumed): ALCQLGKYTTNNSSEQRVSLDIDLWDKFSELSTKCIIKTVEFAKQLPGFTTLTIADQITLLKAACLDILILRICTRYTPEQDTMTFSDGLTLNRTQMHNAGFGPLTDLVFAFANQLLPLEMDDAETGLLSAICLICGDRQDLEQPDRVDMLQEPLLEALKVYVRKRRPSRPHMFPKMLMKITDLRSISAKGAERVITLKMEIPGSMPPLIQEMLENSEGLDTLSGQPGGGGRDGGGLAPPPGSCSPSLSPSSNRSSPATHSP
Put plainly: Binding assay for human RAR-α (displacement of 3H-retinoic acid). The conditions noted are these: 3H-retinoic acid displacement, mean of two or more experiments.

Setting [8] is: RAR-γ, COS cells, 50% of the compound's own maximum, set to highest concentration tested (usually 1000 nM) if no maximum reached, read-out: Transactivation ED50 (γ).
Setting [9] is: COS cells, 50% of the compound's own maximum, set to highest concentration tested (usually 1000 nM) if no maximum reached, read-out: Transactivation ED50 (α).
[10] abbreviates: COS cells, 50% of the compound's own maximum, set to highest concentration tested (usually 1000 nM) if no maximum reached, read-out: Transactivation ED50 (β).

These results are taken from patent US5807900A, “Method for identifying compounds having increased activity for the repair of skin photodamage” (priority 1995, dated 1998).

Like-named read-outs stand apart in the source and are kept apart here.

Take `CC1=C(/C=C/C(C)=C\C=C\C(C)=C\C(=O)O)C(C)(C)CCC1` [C, 9-cis RA, reference compound]: the EC50 in assay [1] amounted to […]; in assay [3] (read-out: Transactivation ED50 (α), COS cells, 50% of the compound's own maximum, set to highest concentration tested (usually 1000 nM) if no maximum reached), […]. The “Transactivation % max (γ)” value in assay [1] (RAR-γ) is reported as […]. Further, in assay [2], the “Photodamage repair activity (scale 0 to 4)” value (from here on “Photodamage repair activity”) is […]. The “Transactivation % max (α)” value in assay [3] is given as […].

As to `CC1=C(/C=C/C(C)=C/C=C/C(C)=C/C(=O)O)C(C)(C)CCC1` [Compound A, all-trans retinoic acid, reference compound], the EC50 in assay [1] came to […]; in assay [4] (read-out: Transactivation ED50 (β), COS cells, 50% of the compound's own maximum, set to highest concentration tested (usually 1000 nM) if no maximum reached) it was […]. In assay [1] (RAR-γ), the “Transactivation % max (γ)” value amounted to […]. Further, in assay [2], the “Photodamage repair activity” value is recorded as […]. Moreover, the “ED50 for photodamage repair” value in assay [2] (μg of test compound applied to 10 cm^2 of skin area, standard retinoid) came to […]. Besides, the “Transactivation % max (β)” value in assay [4] is recorded as […].

For orientation: IC50 means the concentration that inhibits the measured activity by half. Low values mean greater potency in that assay, high ones weaker potency in that assay. `CCCCCCCOc1cc2c(cc1/C(C)=C/c1ccc(C(=O)O)cc1)C(C)(C)CCS2(=O)=O` [Compound L, p-[(E)-2-[3',4'-dihydro-4',4'-dimethyl-7'-(heptyloxy)-2'H-1-benzothiopyran-6'-yl]propenyl]benzoic acid 1',1'-dioxide, reference compound]: the IC50 was 4200 nM in assay [5], 4700 nM in assay [6] and 70 nM in assay [7]. Besides, the EC50 in assay [1] (setting [8]), in assay [3] (setting [9]) and in assay [4] (setting [10]) was 1000 nM throughout. Besides, the “Transactivation % max (γ)” value in assay [1] (RAR-γ) amounted to 18%. For the same compound, the “Photodamage repair activity” value in assay [2] turned out to be 0. The “Transactivation % max (α)” value in assay [3] worked out at 14%. Also, the “Transactivation % max (β)” value in assay [4] came out at 14%.

For the compound `COc1cc(C)c(/C=C/C(C)=C/C=C/C(C)=C/C(=O)O)c(C)c1C` [D, acitretin, reference compound], the IC50 in assay [5] was […]. In addition, the “Photodamage repair activity” value in assay [2] worked out at 0.

In the case of `CCOC(=O)/C=C(C)/C=C/C=C(C)/C=C/c1c(C)cc(OC)c(C)c1C` [E, etretinate, reference compound], the IC50 in assay [5], in assay [6] and in assay [7] was above 10000 nM in each case. Also, the EC50 in assay [1] (setting [8]), in assay [3] (setting [9]) and in assay [4] (setting [10]) was 1000 nM throughout. In addition, the “Transactivation % max (γ)” value in assay [1] (RAR-γ) came out at 20%. For the same compound, the “Photodamage repair activity” value in assay [2] was found to be 0. The “Transactivation % max (α)” value in assay [3] is 14%. The “Transactivation % max (β)” value in assay [4] turned out to be 21%.

Consider `C/C(=C\c1ccc(C(=O)O)cc1)c1ccc2c(c1)C(C)(C)CCC2(C)C` [F], for which the “Photodamage repair activity” value in assay [2] is reported as 1 (an ED50 of 100 μg).

For the compound `C/C(=C\c1ccc(S(C)(=O)=O)cc1)c1ccc2c(c1)C(C)(C)CCC2(C)C` [G], the IC50 in assay [5], in assay [6] and in assay [7] was above 10000 nM in each case. For the same compound, the EC50 in assay [1] (setting [8]), in assay [3] (setting [9]) and in assay [4] (setting [10]) was 1000 nM each time. Besides, the “Transactivation % max (γ)” value in assay [1] (RAR-γ) is listed as 36%. For the same compound, the “Photodamage repair activity” value in assay [2] is 3 (an ED50 of 1 μg or less (highly active)). For the same compound, the “Transactivation % max (α)” value in assay [3] is reported as 23%. In assay [4], the “Transactivation % max (β)” value is recorded as 17%.

With `C/C(=C\c1ccccc1)c1ccc2c(c1)C(C)(C)CCC2(C)C` [H], the IC50 in assay [5], in assay [6] and in assay [7] was above 10000 nM in each case. Also, the EC50 in assay [1] (setting [8]), in assay [3] (setting [9]) and in assay [4] (setting [10]) was 1000 nM each time. Also, the “Transactivation % max (γ)” value in assay [1] (RAR-γ) is 19%. The “Photodamage repair activity” value in assay [2] was 0. The “Transactivation % max (α)” value in assay [3] is reported as 12%. Also, in assay [4], the “Transactivation % max (β)” value is 10%.

With `CC1(C)CCC(C)(C)c2cc(C(=O)Nc3ccc(C(=O)O)cc3)ccc21` [J], the “Photodamage repair activity” value in assay [2] was 0.

Consider `CC1(C)CCC(C)(C)c2cc(NC(=O)c3ccc(C(=O)O)cc3)ccc21` [K], for which the “Photodamage repair activity” value in assay [2] was 0.
